What was measured:
Assay type in all cases: in vivo
Viola mandshurica = assay: Herbicidal effect on weeds in dry field, spraying treatment to stems and leaves after sprouting (Test Example 5, Table 13); conditions: 80 g ai/ha, rated after 3 weeks
Experimental: (§1) The formulations of active compounds were obtained as emulsions by mixing 1 part by weight of the active compound with the carrier and emulsifier in the described amounts. The formulations were diluted with water so as to adjust a prescribed dosage.
(§2) In a greenhouse seeds of rice (cultivar: Balilla) and weeds (Brachiaria plantaginea, Cyperus esculntus, Cyperus iria L., Echinochloa colonum, Leptochloa chinensis, Ipomoea purpurea, and Sesbania exaltata) were inoculated on the surface layers of pots filled with 100 cm^2 of paddy field soil and covered with soil. Water was poured to produce wet state (water level 0 cm). The prescribed diluted solutions of the formulations of the respective active compounds obtained in the same manner as in Test Example 1 were sprayed on the soil of some pots on completion of the seeding and the solutions of the agents were sprayed over the plants from the above in the rest of the pots after the respective sample plants were grown in first- to third-1 eaf stage in the greenhouse. After one day from the treatment with the compound, water was poured in 3 cm depth. The herbicidal effects and herbicide damage on rice of the respective compounds were investigated after 3 weeks from the treatment. The herbicidal effect and herbicide damage on the rice were rated as 100% in the case of complete withering and 0% in the case of no herbicidal effect or no harm. When herbicidal effect was 80% or higher, it was determined to be practically applicable as herbicides. When the herbicide damage was 20% or lower, the safety of the herbicide was evaluated to be excellent.
(§3) In a green house one seed each of crops in dry field (Triticum aestivum) and weeds (Veronica persica and Viola mandshurica) were inoculated in the surface layer in one pot filled with 16 cm^2 of dry field soil and covered with soil. After the sample plants were grown to second- and third-leaf stages at the greenhouse, the prescribed diluted solutions of the formulations of the respective active compounds obtained in the same manner as in Test Example 1 were sprayed over the plants from the above. The herbicidal effect and herbicide damage on crops of the respective compounds were investigated after 3 weeks from the treatment. Evaluations of the herbicidal effect and herbicide damage were carried out in the same manner as in Test Example 3.

Veronica persica = assay: as above; conditions: 80 g ai/ha, rated after 3 weeks
Experimental: as §1, §2, §3

Triticum aestivum [1] = assay: Herbicide damage to crops in dry field, spraying treatment to stems and leaves after sprouting (Test Example 5, Table 13); conditions: 80 g ai/ha, rated after 3 weeks
Experimental: as §1
as §2, with “The herbicidal effects and herbicide damage on rice of the respective compounds were investigated after 3 weeks from the treatment. The herbicidal effect and herbicide damage on the rice were rated as 100% in the case of complete withering and 0% in the case of no herbicidal effect or no harm.” left out, “excellent. […]” for “excellent.”

[2] = test system: Scirpus juncoides Roxburgh (resistant to sulfonylurea type herbicide); assay: Herbicidal efficacy test to weeds resistant to sulfonylurea type herbicide (Test Example 1, applied on water surface, Table 8); conditions: 60 g ai/ha, applied on water surface at beginning of sprouting, rated after 3 weeks; 100% = complete withering, 0% = no effect
Experimental: (§4) Preparation of formulation of active compound
(§5) Carrier: DMF 5 parts by weight
(§6) Emulsifier: benzyloxypolyglycol ether 1 part by weight
as §1
(§7) In a greenhouse respective seeds of Scirpus juncoides Roxburgh (from Hokkaido, Japan) and Lindernia procumbens Philcox (from Saitama, Japan), which are confirmed to have resistance to a sulfonylurea type herbicide, were inoculated in pots filled with 500 cm^2 of paddy field soil and water was poured to the pot in about 2 to 3 cm depth. At the beginning of sprouting of the weeds, prescribed diluted solutions of the formulations of the respective active compounds obtained by the above-mentioned manner were applied on the water surface. After the treatment water depth of 3 cm was kept. The herbicidal effect was investigated after 3 weeks of the treatment. The herbicidal effect was rated as 100% in the case of complete withering and 0% in the case of no herbicidal effect. When the herbicidal effect was 80% or higher, the practical effectiveness as herbicides is recognized. As the representative examples, the test results of the compound Nos. 1, 3, 4, 5, 6, 7, 13, 70, 127, 128 and 130 are shown in Table 8.

[3] = test system: Lindernia procumbens Philcox (resistant to sulfonylurea type herbicide); assay: as above; conditions: 60 g ai/ha, applied on water surface at beginning of sprouting, rated after 3 weeks; 100% = complete withering, 0% = no effect
Experimental: as §4, §5, §6, §1, §7

rice (cultivar: Balilla) [4] = assay: Irrigated directly seeded paddy rice, herbicide damage, spraying to stems and leaves after sprouting (Test Example 3, Table 11); conditions: 20 g ai/ha, rated after 3 weeks
Experimental: as §1, §2

rice (cultivar: Balilla) [5] = assay: Irrigated directly seeded paddy rice, herbicide damage, spraying to soil before sprouting (Test Example 3, Table 10); conditions: 20 g ai/ha, rated after 3 weeks
Experimental: as §1, §2

Sesbania exaltata [6] = assay: Irrigated directly seeded paddy rice, herbicidal effect, spraying to stems and leaves after sprouting (Test Example 3, Table 11); conditions: 20 g ai/ha, rated after 3 weeks
Experimental: as §1, §2

Cyperus esculntus [7] = assay: as above; conditions: 20 g ai/ha, rated after 3 weeks
Experimental: as §1, §2

Ipomoea purpurea [8] = assay: as above; conditions: 20 g ai/ha, rated after 3 weeks
Experimental: as §1, §2

Brachiaria plantaginea [9] = assay: as above; conditions: 20 g ai/ha, rated after 3 weeks
Experimental: as §1, §2

Leptochloa chinensis [10] = assay: as above; conditions: 20 g ai/ha, rated after 3 weeks
Experimental: as §1, §2

Echinochloa colonum [11] = assay: as above; conditions: 20 g ai/ha, rated after 3 weeks
Experimental: as §1, §2

Cyperus iria L. [12] = assay: as above; conditions: 20 g ai/ha, rated after 3 weeks
Experimental: as §1, §2

Sesbania exaltata [13] = assay: Irrigated directly seeded paddy rice, herbicidal effect, spraying to soil before sprouting (Test Example 3, Table 10); conditions: 20 g ai/ha, rated after 3 weeks
Experimental: as §1, §2

Cyperus esculntus [14] = assay: as above; conditions: 20 g ai/ha, rated after 3 weeks
Experimental: as §1, §2

Ipomoea purpurea [15] = assay: as above; conditions: 20 g ai/ha, rated after 3 weeks
Experimental: as §1, §2

Brachiaria plantaginea [16] = assay: as above; conditions: 20 g ai/ha, rated after 3 weeks
Experimental: as §1, §2

Leptochloa chinensis [17] = assay: as above; conditions: 20 g ai/ha, rated after 3 weeks
Experimental: as §1, §2

Echinochloa colonum [18] = assay: as above; conditions: 20 g ai/ha, rated after 3 weeks
Experimental: as §1, §2

Cyperus iria L. [19] = assay: as above; conditions: 20 g ai/ha, rated after 3 weeks
Experimental: as §1, §2

Setaria vividis = assay: Herbicidal effect on weeds in dry field, spraying treatment on soil before sprouting (Test Example 4, Table 12); conditions: 80 g ai/ha, spraying to soil before sprouting, rated after 3 weeks
Experimental: as §1, §2
(§8) In a greenhouse one seed each of crops in dry field (Triticum aestivum and Glycine max) and weeds (Echinochloa crus-gali and Setaria vividis) were inoculated in the surface layer in one pot filled with 16 cm^2 of dry field soil and covered with soil. The prescribed diluted solutions of the formulations of the respective active compounds obtained in the same manner as in Test Example 1 were sprayed to the soil upon the inoculation. The herbicidal effect and herbicide damage on crops of the respective compounds were investigated after 3 weeks from the treatment. Evaluations of the herbicidal effect and herbicide damage were carried out in the same manner as in Test Example 3. As the representative example, the test results of compound No. 1 and 24, and the comparative compound C-1 are shown in Table 12.

Echinochloa crus-gali = assay: as above; conditions: 80 g ai/ha, spraying to soil before sprouting, rated after 3 weeks
Experimental: as §1, §2, §8

Triticum aestivum [20] = assay: Herbicide damage to crops in dry field, spraying treatment on soil before sprouting (Test Example 4, Table 12); conditions: 80 g ai/ha, rated after 3 weeks
Experimental: as §1, §2, §8

Glycine max = assay: as above; conditions: 80 g ai/ha, rated after 3 weeks
Experimental: as §1, §2, §8

| Structure (SMILES) | Herbicidal effect Viola mandshurica (Viola mandshurica) | Herbicidal effect Veronica persica (Veronica persica) | Herbicide damage Triticum aestivum (Triticum aestivum [1]) | Herbicidal effect to sulfonylurea resistant weeds: Scirpus juncoides Roxburgh (from Hokkaido) [2] | Herbicide damage on Rice (rice (cultivar: Balilla) [4]) | Herbicide damage on Rice (rice (cultivar: Balilla) [5]) | Herbicidal effect Sesbania exaltata (Sesbania exaltata [6]) | Herbicidal effect Cyperus esculntus (Cyperus esculntus [7]) | Herbicidal effect Ipomoea purpurea (Ipomoea purpurea [8]) | Herbicidal effect Brachiaria plantaginea (Brachiaria plantaginea [9]) | Herbicidal effect Leptochloa chinensis (Leptochloa chinensis [10]) | Herbicidal effect Echinochloa colonum (Echinochloa colonum [11]) | Herbicidal effect Cyperusiria L. (Cyperus iria L. [12]) | Herbicidal effect Sesbania exaltata (Sesbania exaltata [13]) | Herbicidal effect Cyperus esculntus (Cyperus esculntus [14]) | Herbicidal effect Ipomoea purpurea (Ipomoea purpurea [15]) | Herbicidal effect Brachiaria plantaginea (Brachiaria plantaginea [16]) | Herbicidal effect Leptochloa chinensis (Leptochloa chinensis [17]) | Herbicidal effect Echinochloa colonum (Echinochloa colonum [18]) | Herbicidal effect Cyperusiria L. (Cyperus iria L. [19]) | further results |
| --- | --- | --- | --- | --- | --- | --- | --- | --- | --- | --- | --- | --- | --- | --- | --- | --- | --- | --- | --- | --- | --- |
| COc1cc(OC)nc(C(Cl)c2cccc(F)c2NS(=O)(=O)C(F)F)n1 (stereo not shown) [compound 13] | 100% | 100% | 0% | 100% | – | – | – | – | – | – | – | – | – | – | – | – | – | – | – | – | Herbicidal effect to sulfonylurea resistant weeds: Lindernia procumbens Philcox (from Saitama pref.) [3]: 100% |
| COc1nc(OC)nc(C(O)c2cccc(F)c2N(C)S(=O)(=O)C(F)F)n1 (stereo not shown) [compound 9] | – | – | – | – | 20% | 20% | 100% | 100% | 100% | 100% | 60% | 100% | 100% | 100% | 100% | 70% | 70% | 80% | 100% | 100% | – |
| COc1cc(OC)nc(C(O)c2cccc(F)c2NS(=O)(=O)C(F)(F)F)n1 (stereo not shown) [C-1, reference compound] | 30% | 60% | 0% | – | – | – | – | – | – | – | – | – | – | – | – | – | – | – | – | – | Herbicidal effect Setaria vividis (Setaria vividis): 0%; Herbicidal effect Echinochloa crus-gali (Echinochloa crus-gali): 0%; Herbicide damage Triticum aestivum (Triticum aestivum [20]): 0%; Herbicide damage Glycine max (Glycine max): 20% |
| COc1nc(OC)nc(C(=O)c2cccc(F)c2N(C)S(=O)(=O)C(F)F)n1 [Compound No. 1] | – | – | – | 100% | 20% | 20% | 100% | 100% | 90% | 100% | 80% | 100% | 100% | 100% | 100% | 90% | 80% | 100% | 100% | 100% | Herbicidal effect Setaria vividis (Setaria vividis): 80%; Herbicidal effect Echinochloa crus-gali (Echinochloa crus-gali): 90%; Herbicide damage Triticum aestivum (Triticum aestivum [20]): 0%; Herbicide damage Glycine max (Glycine max): 20% |

Reference: patent US20090305894A1, “use of sulfonanilides as herbicide” (priority 2005, published 2009)
